Reference: US5356775A, “Primary structure for functional expression from complementary DNA of a mammalian ATP-sensitive potassium channel” (Brigham & Women's Hospital, priority 1992, dated 1994)
Entries after “also recorded” stand apart in the source; their conditions may differ.

What was measured:
[1] = molecular target: T1, ROMK1 K+ channels (Rattus norvegicus, UniProt P35560); test: Single channel patch clamp recording, inside-out patches excised from ROMK1 mRNA-injected Xenopus oocytes; assay type: cell-based
T1 construct: This coding region encodes a protein of 391 amino acids; expressed in transfected cells; host or cells: Xenopus laevis oocytes injected with cRNA transcribed in vitro from ROMK1 cDNA (pSPORT1)
T1 sequence (P35560 1-391): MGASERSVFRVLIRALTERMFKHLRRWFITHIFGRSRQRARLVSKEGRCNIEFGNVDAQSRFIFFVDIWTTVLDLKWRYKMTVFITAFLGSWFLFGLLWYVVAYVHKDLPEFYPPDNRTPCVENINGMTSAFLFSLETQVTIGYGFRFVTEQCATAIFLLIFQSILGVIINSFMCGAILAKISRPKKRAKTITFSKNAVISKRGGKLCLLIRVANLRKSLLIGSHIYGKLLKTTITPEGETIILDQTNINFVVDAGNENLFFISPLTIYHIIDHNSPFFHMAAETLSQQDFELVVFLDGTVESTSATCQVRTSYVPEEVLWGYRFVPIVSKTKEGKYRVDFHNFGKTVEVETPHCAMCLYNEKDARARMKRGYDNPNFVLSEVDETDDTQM
Method: FIG. 2. Single channel characteristics of ATP-sensitive ROMK1 K^+ channels expressed in Xenopus oocytes. Channel activities were recorded in inside-out patches excised from oocyte membranes.
Changes made in bath solution ATP concentration are indicated above the current recording: ATP-free (solid line), 0.025 mM ATP (dashed line). Recordings were taken at VH =-80 mV. Interruptions were introduced into the recording shown in order to display the entire current tracing. Expanded current tracings taken from the continuous recording are indicated by numbers and arrowheads.
(E) The inhibitory effect of 2.5 mM ATP on channel activity. Changes in bath solution ATP concentration are indicated above the current recording; 0.025 mM ATP (dashed line), 2.5 mM ATP (solid line). […] The recording was taken at VH =-40 mV. Expanded current tracings taken from the recording at various time intervals are indicated by arrows and numbers. The pipette solution contained (mM): 150 or 50 KCl, 1 CaCl2, 1 MgCl2, 5 HEPES (pH 7.4). The bath solution contained (mM): 0,0.025 or 2.5 MgATP, 150 KCl, 1 MgCl2 , 5 EGTA, 5 HEPES (pH 7.4).
Single channel recordings were obtained in oocytes injected with ROMK1 mRNA following vitelline membrane removal using standard patch clamp techniques to further characterize the properties of ROMK1 K^+ currents (FIG. 2). […] At negative membrane potentials, the amplitude of inward currents increased linearly with increasing hyperpolarization relative to Erev (Erev =O mV for symmetrical K^+ solutions). […] Similar inwardly rectifying currents were also observed in the cell-attached patch configuration. The K^+ selectivity of these currents was confirmed by varying the pipette solution K^+ concentration ([K^+ ]ext). Reversal potentials obtained with pipette solutions containing either 150 mM KCl or 50 mM KCl+100 mM NaCl were in complete agreement with the Nernstian predictions for Erev under these conditions (FIGS. 2B, 2C); the permeability ratio (PNa /PK) of 0.025 for these channels indicates high K^+ selectivity. […] Epithelial KATP channels (classified as Type 3) present in renal tubular cells from the thick ascending limb of Henle and the conical collecting duct (Bliech et al., Pflugers Arch. 415:449 (1990); Wang et al., Am. J. Physiol. 258:F244 (1990); Wang et al., Am. J. Physiol. 259:F494 (1990)) have single conductances of ~25-60 pS and share similar characteristics.
The effect of intracellular ATP on ROMK1 currents was also investigated using the inside-out patch configuration. […] In contrast, channel activity was routinely maintained for 30 minutes or longer by excision of patches directly into a bath solution containing 25 μM MgATP. […] Channels with these properties and electrophysiological characteristics were never observed in either cell-attached or inside-out patches from H2 O-injected control oocytes; in contrast, several channels of this type were typically active in patches from ROMK1 mRNA-injected oocytes. The incidence of ROMK1 channels in patches was 94% (63 of 67 patches) which was consistent with the high channel density observed in these experiments. […] In channels of both types, channel rundown rapidly occurs in excised membrane patches; this loss of channel activity is reversed or prevented, at least partially, by the addition of MgATP (Ashcroft et al., Cellular Signalling 2:197 (1990); Ashcroft, F. M., Ann. Rev. Neurosci. 11:97 (1988); Nichols et al., Am. J. Physiol. 261:H1675 (1991); Wang et al., J. Gen. Physiol. 98:35 (1991)).

[2] = molecular target: Type 1 channels in cardiac myocytes; settings: read-out: Ki of intracellular ATP; cited from earlier work
[3] = molecular target: Type 2 KATP channels (central neurons); settings: central neurons (e.g. ventromedial hypothalamic nucleus), read-out: Ki of ATP; cited from earlier work
[4] = tested on: Type 1 channels in pancreatic β-cells; settings: read-out: Ki of intracellular ATP; cited from earlier work
[5] = molecular target: renal Type 3 KATP channels; settings: read-out: Ki of intracellular ATP; cited from earlier work
[6] = tested on: Ba2+-sensitive potassium currents (IK(Ba)) expressed from rat kidney ISOM poly(A)+ RNA; test: Two-electrode voltage clamp of Xenopus oocytes injected with rat kidney ISOM poly(A)+ RNA; assay type: cell-based; settings: 5 mM Ba2+, [K+]ext = 50 mM, test potentials -80 to 0 mV
Method: (A) Representative current tracings evoked by 450 ms voltage steps ranging from -80 mV to 0 mV in 20 mV increments from a holding potential (VH) of -60 mV in oocytes injected with ~25 ng ISOM poly(A)^+ RNA or 50 nl H2 O [K^+ ]ext =50 mM.
(B) Current-voltage relationships of IK(Ba) in a representative ISOM poly(A)^+ RNA-injected oocyte ( ) and a H2 O-injected control (.circle.). […] Both current amplitudes and Vm were measured 75 ms after initiation of test pulses; Ba^2+ -sensitive current (KK(Ba)) amplitudes were obtained by determining the difference in current amplitudes before and after the addition of 5 mM Ba^2+ at each test potential and plotted as a function of observed Vm.
(§1) Size-fractionated mRNA with a size of ~2-3 kb yielded a highly augmented mean inward IK(Ba) sixteen-fold greater than that of H2 O-injected controls when injected into oocytes (FIG. 1D) and was therefore used to construct a directional cDNA library in the vector pSPORT1. RNA transcribed in vitro from pooled clones using T7 RNA polymerase was injected into Xenopus oocytes and tested for IK(Ba) currents using two-electrode voltage clamping. Functional screening of cRNA led to the identification of a 2.1 kb cDNA, ROMK1.

[7] = molecular target: T2, ROMK1 (Rattus norvegicus, UniProt P35560); test: Two-electrode voltage clamp of Xenopus oocytes injected with ROMK1 mRNA; assay type: cell-based; settings: 10 mM, [K+]ext = 50 mM, test potentials -60 to 0 mV
T2 construct: This coding region encodes a protein of 391 amino acids; expressed in transfected cells; host or cells: Xenopus laevis oocytes injected with cRNA transcribed in vitro from ROMK1 cDNA (pSPORT1)
T2 sequence (P35560 1-391): T1 sequence (P35560 1-391)
Method: (E) Representative current tracings in oocytes injected with ~0.3 ng ROMK1 mRNA or H2 O evoked by 450 ms test pulses from a VH =-45 mV to test potentials from -60 mV to 0 mV in 20 mV increments in the presence or absence of 10 mM Ba2+, [K+ ]ext =50 mM. ROMK1 currents were blocked by 10 mM Ba^2+ at the test potentials used.
as §1

Nc1ncnc2c1ncn2[C@@H]1O[C@H](COP(=O)(O)OP(=O)(O)OP(=O)(O)O)[C@@H](O)[C@H]1O [ATP]
effect on channel activity of high ATP at the cytosolic face of inside-out patches ([1]; 1.0-2.5 mM ATP, patches initially excised into bath containing 25 μM ATP): rapid and marked inhibition of channel activity
effect of 2.5 mM ATP on channel activity ([1]; ATP raised from 0.025 mM to 2.5 mM by puffer pipette, VH = -40 mV): inhibition of channel activity
restoration of channel activity following channel rundown ([1]; readdition of 25 μM (0.025 mM) ATP after ATP-free bath): Partial restoration of channel activity; also recorded: channel recovery
reversibility of inhibition by ATP ([1]; wash-out of the high ATP-containing solution): reversible
Ki [2]: 17 to 100 µM
Ki [3]: 2000 to 3000 µM
Ki [4]: 10 to 20 µM
Ki [5]: 200 to 500 µM

[Ba+2] [Ba^2+]
inhibition of currents expressed in RNA-injected oocytes [6]: marked inhibition
inhibition (block) of ROMK1 currents [7]: blocked

CC[N+](CC)(CC)CC [TEA^+]
inhibition (block) of ROMK1 currents [7]: no inhibition

Nc1ncnc2c1ncn2[C@@H]1O[C@H](COP(=O)(O)OP(=O)(O)OP(=O)(O)O)[C@@H](O)[C@H]1O [MgATP]
time channel activity was maintained in excised patches ([1]; patches excised directly into bath solution containing 25 μM MgATP): ≥ 30 min
